According to patent publication US5837687A, “Azapeptide derivative” (Fujirebio Inc., priority 1994, dated 1998):
Read-outs that look alike come from different tables or passages of the source. Peptide text beside a SMILES is read from it. * marks the point of attachment. Boc = CC(C)(C)OC(=O)*; OBn = c1ccc(CO*)cc1

Legend:
NKA receptor [1] = molecular target: T1, NKA receptor (Mesocricetus auratus, UniProt P51144); assay: Activity to constriction of hamster respiratory tracts caused by NKA (isolated tissue, tension); assay type: cell-based
T1 construct: from tissue; host or cells: hamster respiratory tract (trachea) ring specimens
T1 sequence (P51144 1-384): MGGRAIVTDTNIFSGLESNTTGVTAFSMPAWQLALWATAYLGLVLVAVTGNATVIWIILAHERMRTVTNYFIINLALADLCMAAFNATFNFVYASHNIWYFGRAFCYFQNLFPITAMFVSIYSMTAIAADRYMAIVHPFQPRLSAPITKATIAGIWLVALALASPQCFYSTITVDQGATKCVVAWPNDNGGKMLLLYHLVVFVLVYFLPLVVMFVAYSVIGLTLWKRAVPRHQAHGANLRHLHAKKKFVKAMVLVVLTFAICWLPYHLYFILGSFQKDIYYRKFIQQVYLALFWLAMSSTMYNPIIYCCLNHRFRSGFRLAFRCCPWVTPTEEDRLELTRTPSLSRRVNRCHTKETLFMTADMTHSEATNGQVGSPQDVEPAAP
Description: The activity of the azapeptide derivative of the present invention to a NKA receptor was evaluated by the following method.
(1) Activity to constriction of hamster respiratory tracts caused by NKA
Respiratory tracts were taken out from male Syrian strain Golden hamsters having a body weight of 100 to 180 g, and cyclic specimens having a width of 3 to 6 mm were prepared. The specimens were incubated at 37° C. and suspended by loading a static tension of 0.5 g, in a reaction tank charged with 15 ml of a Tyrode solution (137 mM of NaCl, 2.7 mM of KCl, 1.8 mM of CaCl2, 1.02 mM of MgCl2, 11.9 mM of NaHCO3, 0.42 mM of NaH2 PO4 and 5.5 mM of glucose) in which 95% O2 -5% CO2 had been passed.
The compound to be tested was charged into the reaction tank and maintained for 5 minutes. 1×10^-7 M of NKA was charged into the reaction tank, and tension caused thereby was recorded. The examined effect of the tested compound as an antagonist was shown by IC50.

NKA receptor [2] = molecular target: T2, NKA receptor (Cavia porcellus, UniProt Q64077); assay: Activity to constriction of guinea pig respiratory tracts caused by NKA (in vivo, excess air amount); details: anesthetized guinea pigs, cervical vein; for Controlling rate (%) 1 min: 2 nmol/kg NKA given 1 min after test compound; for Controlling rate (%) 15 min: 2 nmol/kg NKA given 15 min after test compound
T2 construct: Male Hartley strain guinea pigs having a body weight of 350 to 500 g were anesthetized; from tissue; host or cells: whole anaesthetized guinea pig (airways, in vivo)
T2 sequence (Q64077 1-402): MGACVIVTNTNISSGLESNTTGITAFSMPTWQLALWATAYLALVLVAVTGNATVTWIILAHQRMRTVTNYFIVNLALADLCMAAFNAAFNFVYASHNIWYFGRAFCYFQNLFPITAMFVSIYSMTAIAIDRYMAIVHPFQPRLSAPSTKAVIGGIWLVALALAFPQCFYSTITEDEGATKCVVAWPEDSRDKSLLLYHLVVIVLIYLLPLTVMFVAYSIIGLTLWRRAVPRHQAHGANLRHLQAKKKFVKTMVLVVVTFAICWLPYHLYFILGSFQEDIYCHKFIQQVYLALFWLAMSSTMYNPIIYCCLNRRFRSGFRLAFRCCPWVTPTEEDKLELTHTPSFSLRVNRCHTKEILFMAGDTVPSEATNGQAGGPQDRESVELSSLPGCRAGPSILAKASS
Description: (2) Activity to constriction of guinea pig respiratory tracts caused by NKA
Male Hartley strain guinea pigs having a body weight of 350 to 500 g were anesthetized by administering 1.5 g/kg of urethane into abdominal cavities thereof. Cannulas made of polyethylene were inserted into cervical veins and respiratory tracts. From the cervical vein cannulas, 1 mg of gallamine was administered to stop respiration. The respiratory tract cannulas were connected to a respirator, and artificial respiration was carried out with an air-supplying amount at one time of 4 to 6 ml and an air-supplying frequency of 70 times/min. Side branches of the respiratory tract cannulas were introduced into a water tank, and a hydraulic pressure of 8 cm H2 O was loaded. Excess air amounts exceeding the above hydraulic pressure and discharged were measured. From the cervical vein cannulas, 2 nmol/kg of NKA was administered, each compound to be tested was administered after 15 minutes, and further 2 nmol/kg of NKA was administered after 1, 15, 30, 45 and 60 minutes, respectively. The increased amounts of excess air after the respective NKA administrations were measured, and percentages relative to the increased amounts of excess air when the respiratory tracts were completely closed were determined, which were defined as respiratory constriction rates. The decreased ratios of the respiratory constriction rates after administering the compounds to be tested to the respiratory constriction rates before administering the compounds to be tested were shown by percentages, which were defined as controlling rates. The controlling rates were regarded as an effect of the compound to be tested as an antagonist.

[3] = mole concentration giving 50% control of tension caused by 1×10^-7 M NKA, compound maintained 5 minutes, hamster respiratory tract specimens, read-out: IC50

| Compound | IC50 (NKA receptor [1]) [nM] | other results |
| --- | --- | --- |
| NC(=O)C[C@H](NC(=O)OCc1ccccc1)C(=O)N[C@@H](Cc1c[nH]c2ccccc12)C(=O)NN(Cc1ccccc1)C(=O)NCCOCc1ccccc1 [Example 12, Z-Asn-Trp-AzPhe-NH(CH2)2 OCH2 Ph] | 4.5 | Controlling rate (%) 1 min (NKA receptor [2]): 19.5%; Controlling rate (%) 15 min (NKA receptor [2]): 73.2%; Controlling rate (%) 30 min (NKA receptor [2]; 2 nmol/kg NKA given 30 min after test compound): 62.2%; Controlling rate (%) 45 min (NKA receptor [2]; 2 nmol/kg NKA given 45 min after test compound): 54.8%; Controlling rate (%) 60 min (NKA receptor [2]; 2 nmol/kg NKA given 60 min after test compound): 51.7% |
| CC(C)CNC(=O)N(Cc1ccccc1)NC(=O)[C@H](Cc1c[nH]c2ccccc12)NC(=O)[C@H](CCC(N)=O)NC(=O)[C@H](CC(=O)OCc1ccccc1)NC(=O)OC(C)(C)C [Example 25 (3), Boc-Asp(OBzl)-Gln-Trp-AzPhe-NHCH2 CH(CH3)2] | 34 | – |
| CC(C)(C)OC(=O)N[C@@H](CC(=O)OCc1ccccc1)C(=O)N[C@@H](CCC(N)=O)C(=O)N[C@@H](Cc1c[nH]c2ccccc12)C(=O)NN(Cc1ccccc1)C(=O)N1CCOCC1 [Example 26 (3), Boc-Asp(OBzl)-Gln-Trp-AzPhe-M] | 830 | – |
| CC(C)(C)OC(=O)N[C@@H](CC(=O)OCc1ccccc1)C(=O)N[C@@H](CCC(N)=O)C(=O)N[C@H](Cc1c[nH]c2ccccc12)C(=O)NN(Cc1ccccc1)C(N)=O [Example 27 (3), Boc-Asp(OBzl)-Gln-D-Trp-AzPhe-NH2] | 990 | – |
| CC(C)(C)OC(=O)N[C@@H](CC(=O)OCc1ccccc1)C(=O)N[C@@H](CCC(N)=O)C(=O)N[C@@H](Cc1c[nH]c2ccccc12)C(=O)NN(Cc1ccccc1)C(=O)OCc1ccccc1 [Example 28 (3), Boc-Asp(OBzl)-Gln-Trp-AzPhe-OBzl] | 27 | – |
| CC(C)(C)OC(=O)N[C@@H](CC(=O)OCc1ccccc1)C(=O)N[C@@H](CCC(N)=O)C(=O)N[C@@H](Cc1c[nH]c2ccccc12)C(=O)NN(Cc1ccccc1)C(=O)Nc1ccccc1 [Example 29 (3, Boc-Asp(OBzl)-Gln-Trp-AzPhe-NHPh] | 190 | – |
| CC(C)(C)OC(=O)N[C@@H](CCC(N)=O)C(=O)N[C@@H](Cc1c[nH]c2ccccc12)C(=O)NN(Cc1ccc(F)cc1)C(=O)NCCOCc1ccccc1 [Example 30 (2), Boc-Gln-Trp-AzPhe(4-F)-NH(CH2)2 OCH2 Ph] | 1.1 | – |
| CC(C)(C)NC(=O)N[C@@H](CCC(N)=O)C(=O)N[C@@H](Cc1c[nH]c2ccccc12)C(=O)NN(Cc1ccc(F)cc1)C(=O)NCCOCc1ccccc1 [Example 31, t-Bu-NHCO-Gln-Trp-AzPhe(4-F)-NH(CH2)2 OCH2 Ph] | 0.42 | – |
| COc1ccc(CNC(=O)N(Cc2ccc(OCc3ccccc3)cc2)NC(=O)[C@H](Cc2c[nH]c3ccccc23)NC(=O)[C@H](CCC(N)=O)NC(=O)OC(C)(C)C)c(OC)c1 [Example 32 (2), Boc-Gln-Trp-AzTyr(CH2 Ph)-NHDmob] | 7700 | – |
| Cc1ccccc1CN(NC(=O)[C@H](Cc1c[nH]c2ccccc12)NC(=O)[C@H](CCC(N)=O)NC(=O)NC(C)(C)C)C(=O)NCCOCc1ccccc1 [Example 33 (3), t-Bu-NHCO-Gln-Trp-AzPhe(2-Me)-NH(CH2)2 OCH2 Ph] | 0.16 | – |
| Cc1cccc(CN(NC(=O)[C@H](Cc2c[nH]c3ccccc23)NC(=O)[C@H](CCC(N)=O)NC(=O)NC(C)(C)C)C(=O)NCCOCc2ccccc2)c1 [Example 34 (3), t-Bu-NHCO-Gln-Trp-AzPhe(3-Me)-NH(CH2)2 OCH2 Ph] | 3.9 | – |
| Cc1ccc(CN(NC(=O)[C@H](Cc2c[nH]c3ccccc23)NC(=O)[C@H](CCC(N)=O)NC(=O)NC(C)(C)C)C(=O)NCCOCc2ccccc2)cc1 [Example 35 (3), t-Bu-NHCO-Gln-Trp-AzPhe(4-Me)-NH(CH2)2 OCH2 Ph] | 0.82 | – |
| CC(C)c1ccc(CN(NC(=O)[C@H](Cc2c[nH]c3ccccc23)NC(=O)[C@H](CCC(N)=O)NC(=O)NC(C)(C)C)C(=O)NCCOCc2ccccc2)cc1 [Example 36 (3), t-Bu-NHCO-Gln-Trp-AzPhe(4-iPr)-NH(CH2)2 OCH2 Ph] | 69 | – |
| Cc1ccc(CN(NC(=O)[C@H](Cc2c[nH]c3ccccc23)NC(=O)[C@H](CCC(N)=O)NC(=O)NC(C)(C)C)C(=O)NCCOCc2ccccc2)c(C)c1 [Example 37 (3), t-Bu-NHCO-Gln-Trp-AzPhe(2,4-diMe)-NH(CH2)2 OCH2 Ph] | 0.27 | – |
| Cc1ccc(C)c(CN(NC(=O)[C@H](Cc2c[nH]c3ccccc23)NC(=O)[C@H](CCC(N)=O)NC(=O)NC(C)(C)C)C(=O)NCCOCc2ccccc2)c1 [Example 38 (3), t-Bu-NHCO-Gln-Trp-AzPhe(2,5-diMe)-NH(CH2)2 OCH2 Ph] | 0.68 | – |
| CC(C)(C)NC(=O)N[C@@H](CCC(N)=O)C(=O)N[C@@H](Cc1c[nH]c2ccccc12)C(=O)NN(Cc1ccccc1F)C(=O)NCCOCc1ccccc1 [Example 39 (3), t-Bu-NHCO-Gln-Trp-AzPhe(2-F)-NH(CH2)2 OCH2 Ph] | 0.61 | – |
| CC(C)(C)NC(=O)N[C@@H](CCC(N)=O)C(=O)N[C@@H](Cc1c[nH]c2ccccc12)C(=O)NN(Cc1ccccc1C(F)(F)F)C(=O)NCCOCc1ccccc1 [Example 40 (3), t-Bu-NHCO-Gln-Trp-AzPhe(2-CF3)-NH(CH2)2 OCH2 Ph] | 0.31 | – |
| CC(C)(C)NC(=O)N[C@@H](CCC(N)=O)C(=O)N[C@@H](Cc1c[nH]c2ccccc12)C(=O)NN(Cc1ccccc1)C(=O)NCCOCc1ccc2ccccc2c1 [Example 41 (3), t-Bu-NHCO-Gln-Trp-AzPhe-NH(CH2)2 O-(2-naphthylmethyl)] | 20 | – |
| CC(C)(C)NC(=O)N[C@@H](CCC(N)=O)C(=O)N[C@@H](Cc1c[nH]c2ccccc12)C(=O)NN(Cc1ccccc1)C(=O)NCCOCc1cccnc1 [Example 42 (3), t-Bu-NHCO-Gln-Trp-AzPhe-NH(CH2)2 O-(3-pyridylmethyl)] | 16 | – |
| CC(C)(C)NC(=O)N[C@@H](CCC(N)=O)C(=O)N[C@@H](Cc1c[nH]c2ccccc12)C(=O)NN(Cc1ccccc1)C(=O)NCCOC(c1ccccc1)c1ccccc1 [Example 44 (2), t-Bu-NHCO-Gln-Trp-AzPhe-NH(CH2)2 O-benzhydryl] | 230 | – |
| CC(C)(C)OC(=O)N[C@@H](CC(=O)OCc1ccccc1)C(=O)N[C@@H](CCC(N)=O)C(=O)N[C@@H](Cc1c[nH]c2ccccc12)C(=O)N[C@@H](Cc1ccccc1)C(N)=O [Reference example 14, Boc-Asp(OBzl)-Gln-Trp-Phe-NH2, reference compound] (Boc-D(OBn)QWF-NH2) | – | IC50 (NKA receptor [1]; [3]): 330 nM |
| Ac-LDQWFG-NH2 [Reference example 13, Ac-Leu-Asp-Gln-Trp-Phe-Gly-NH2, reference compound] | – | IC50 (NKA receptor [1]; [3]): 22 nM; Controlling rate (%) 1 min (NKA receptor [2]): 11.9%; Controlling rate (%) 15 min (NKA receptor [2]): 3.9% |
